Test system: MIA PaCa-2 cells
Experiment: Alamar blue cell proliferation assay, pancreatic cancer cells
Assay type: cell-based, human
Settings: carboplatin 0.2, 1, 2.5, 5 and 10 μg/mL, 72 h incubation
Description: All lines used were adherent human cell lines. • (i) Pancreatic cancer cell line: MIA PaCa-2 • Source: Available from ATCC (ATCC® CRL1420™) • Complete growth medium: Eagle's Minimum Essential Medium containing 5% fetal bovine serum and 5% cosmic calf serum • (ii) Human umbilical vein endothelial cells: HUVEC • Source: Available from ATCC (ATCC® PCS-100-010™) or Lonza (single or pooled donor) • Complete growth medium: EGM-2 BulletKit (Lonza) • (iii) Human foreskin fibroblasts: HFF-1 • Source: Available from ATCC (ATCC® SCRC-1041™) • Complete growth medium: Dulbecco's Modified Eagle's Medium containing 15% fetal bovine serum • (iv) Immortalized pancreas duct epithelial-like cells: hTERT-HPNE • Source: Available from ATCC (ATCC® CRL4023™) • Complete growth medium: Specialty Dulbecco's Modified Eagle's Medium composition, protocol available from ATCC • (v) Primary pancreatic stellate cells: Panc stellate • Source: Available from Applied Biological Materials (T4215) • Complete growth medium: Prigrow I containing 10% fetal bovine serum.
Each cell line was adherent in a growth flask, incubated at 37° C. and 5% CO2; de-attached cell from growth flask using Trypsin-EDTA solution (0.25% Trypsin, 0.53 mM EDTA); and counted by Trypan blue staining standard protocol. […]
A standard cell proliferation assay was used, the Alamar blue assay, to assess quantification of viable cells. […]

## N.N.O=C([O-])C1(C(=O)[O-])CCC1.[Pt+2] [carboplatin]
  human pancreatic cancer cell proliferation (positive control): dose dependent cell growth inhibition

Source: patent publication US10610590B2, “Electrochemical plasma activated aqueous chemotherapeutics” (Symbios Technologies, Inc., priority 2016, dated 2020)
